Experimental findings from patent US20230322724A1, “HETEROCYCLIC COMPOUNDS AS CBP/EP300 BROMODOMAIN INHIBITORS” (AURIGENE ONCOLOGY LIMITED, priority 2020, published 2023) are described below.

pIC50: −log10 of the molar value. Where only a bound is given, the exact number is not on record here.

T1 sequence (Q92793 1085-1192 limits assumed): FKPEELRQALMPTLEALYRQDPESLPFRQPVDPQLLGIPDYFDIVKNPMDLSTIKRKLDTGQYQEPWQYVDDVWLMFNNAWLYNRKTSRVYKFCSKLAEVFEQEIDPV

The first test concerns the target T1, recombinant CREBBP bromodomain (Homo sapiens, UniProt Q92793).
T1 construct: recombinant CREBBP bromodomain obtained from BPS Bioscience, USA; purchased BPS Bioscience, USA
Nature of the test: CBP TR-FRET displacement assay. The class given is binding. Particulars: compound at 10 μM. On the procedure:
The potency of compounds to inhibit CREBBP enzyme was tested in a TR-FRET displacement assay using recombinant CREBBP bromodomain obtained from BPS Bioscience, USA. The assay buffer was 50 mM HEPES (pH 7.5), 50 mM NaCl, 0.008% Brij 35, 0.01% BSA, 1 mM TCEP. 50 nM of CREBBP & 500 nM of Biotinylated ligand was incubated at room temperature for 30 minutes, the reaction was initiated by adding pre-incubated enzyme ligand mixture to the test compounds. After 60 min incubation, the reaction was stopped by the addition of stop mix containing 1 nM of LANCE Europium-anti-6xHis antibody (Perkin Elmer, USA) and 40 nM of Sure Light Allophycocyanin-Streptavidin (Perkin Elmer, USA). Fluorescence emission of the samples at 665 and 615 nm were measured at an excitation of 340 nm and their ratio was plotted against the compound concentrations to generate dose-response curve. The percent inhibition of the test compounds is calculated using the ratio of enzyme activity controls.
elected compounds of the present invention were screened in the above-mentioned assay procedures and IC50 values were determined by fitting the dose-response data to sigmoidal curve fitting equation using Graph pad prism software V7.
As for `Cc1cc2c(N3CCc4ccc(-c5cnn(C)c5)cc4C3)cccc2n(C)c1=O` [Example 190], the inhibition at 10 µM is 52%.

On to `COc1cc2c(cc1-c1cnn(C)c1)CCCN2c1cccc2[nH]c(=O)c(C)cc12` [Example 188], for which the inhibition at 10 µM turned out to be 25%. On the same count and under the same terms, next, `COc1cc(N2CCN(C)c3ccc(S(C)(=N)=O)cc32)c2cc(C)c(=O)n(C)c2c1` (stereo not drawn) [Example 101]: 27%. For the compound `Cc1cc2c(N3CCN(C)c4cc(-c5cnn(C)c5)c(CO)cc43)cccc2[nH]c1=O` [Example 58, 5-(7-(Hydroxymethyl)-4-methyl-6-(1-methyl-1H-pyrazol-4-yl)-3,4-dihydroquinoxalin-1(2H)-yl)-3-methylquinolin-2(1H)-one], the inhibition at 10 µM stood at 91%.

Staying with this test, now noted: compound at 10 μM, 10 µM.
As for `Cc1cc2c(N3CCN(C)c4cc(-c5cnn(C)c5)c(C#N)cc43)cc(OCC3CCCN(C)C3)cc2n(C)c1=O` (single isomer, unassigned) [Example 248, 4-(1,3-Dimethyl-7-((1-methylpiperidin-3-yl)methoxy)-2-oxo-1,2-dihydroquinolin-5-yl)-1-methyl-7-(1-methyl-1H-pyrazol-4-yl)-1,2,3,4-tetrahydroquinoxaline-6-carbonitrile], the “% Inhibition (10 μM)” value worked out at 100%.

The test is the same for the next values; noted with them: dose-response, read-out: IC50 (group A, B, C).
Consider `CC(=O)N1CCN(CCOc2cc(N3CCN(C)c4cc(-c5cnn(C)c5)c(C#N)cc43)c3cc(C)c(=O)n(C)c3c2)CC1` [Example 61, 4-(7-(2-(4-Acetylpiperazin-1-yl)ethoxy)-1,3-dimethyl-2-oxo-1,2-dihydroquinolin-5-yl)-1-methyl-7-(1-methyl-1H-pyrazol-4-yl)-1,2,3,4-tetrahydroquinoxaline-6-carbonitrile], for which the negative logarithm of the IC50 (pIC50) was above 7.30. Same read-out and setting: with `COc1cc(N2CCN(C)c3cc(N4CCC(C(=O)NCCO)CC4)c(C#N)cc32)c2cc(C)c(=O)n(C)c2c1` [Example 59, 1-(7-Cyano-1-(7-methoxy-1,3-dimethyl-2-oxo-1,2-dihydroquinolin-5-yl)-4-methyl-1,2,3,4-tetrahydroquinoxalin-6-yl)-N-(2-hydroxyethyl)piperidine-4-carboxamide] the figure was above 7.30.

Turning to `CC(=O)NC1CCN(c2cc3c(cc(C)c(=O)n3C)c(N3CCCc4cc(-c5cnn(C)c5)c(C(F)F)cc43)n2)C1` (stereo not drawn) [Example 216], the pIC50 was above 7.30.

Consider `Cc1cc2c(N3CCSc4cc(-c5cnn(C)c5)ncc43)cc(N3CCOCC3)cc2n(C)c1=O` [Example 171], for which the pIC50 is above 7.30. On the same count and under the same terms, next, `COc1cc(N2CC(=O)N(C)c3ccc(S(N)(=O)=O)cc32)c2cc(C)c(=O)n(C)c2c1` [Example 89]: below 8.00; `COc1cc(N2CCN(C)c3ccc(S(=O)(=O)NC(=O)C(C)(C)C)cc32)c2cc(C)c(=O)n(C)c2c1` [Example 111]: below 8.00. Consider `Cc1cc2c(N3CCCc4cc(N5CCC(C)(N)CC5)c(C(F)F)cc43)nc(C3CCOCC3)cc2n(C)c1=O` [Example 237], for which the negative-log IC50 (pIC50) is above 7.30. The same measure, in the same setting: with `CNC(=O)C1CCN(c2cc3c(cc2F)N(c2cc(N4CCOCC4)cc4c2cc(C)c(=O)n4C)CCN3C)CC1` [Example 49] the figure was above 7.30; with `Cc1cc2c(N3CCN(C)c4cc(-c5cnn(C)c5)ncc43)cc(C#CCO)cc2n(C)c1=O` [Example 155, 7-(3-Hydroxyprop-1-yn-1-yl)-1,3-dimethyl-5-(1-methyl-7-(1-methyl-1H-pyrazol-4-yl)-2,3-dihydropyrido[3,4-b]pyrazin-4(1H)-yl)quinolin-2(1H)-one], 7.00 to 7.29.

As for `Cc1cc2c(N3CCN(C)c4cc(-c5cnn(C)c5)c(C#N)cc43)cncc2n(C)c1=O` [Example 53], the negative logarithm of the IC50 (pIC50) is above 7.30.

For the compound `COc1cc2c(cc1-c1cnn(C)c1)CCCN2c1nc(N2CCC(S(N)(=O)=O)C2)cc2c1cc(C)c(=O)n2C` (stereo not drawn) [Example 246, 1-(5-(7-Methoxy-6-(1-methyl-1H-pyrazol-4-yl)-3,4-dihydroquinolin-1(2H)-yl)-1,3-dimethyl-2-oxo-1,2-dihydro-1,6-naphthyridin-7-yl)pyrrolidine-3-sulfonamide], the negative-log IC50 (pIC50) is 7.00 to 7.29. On the same count and under the same terms, with `Cc1cc2c(N3CCN(C)c4cc(-c5cnn(C)c5)ncc43)cc(OC3CCOCC3)cc2n(C)c1=O` [Example 158] the figure was above 7.30; with `CNC(=O)N1CCN(c2cc3c(cc2C#N)N(c2cc(OC)cc4c2cc(C)c(=O)n4C)CCN3C)CC1` [Example 28], above 7.30; with `COc1cc2c(cc1-c1cnn(C)c1)CCCN2c1nc(C2CCOCC2)cc2c1cc(C)c(=O)n2C` [Example 238], above 7.30. Same read-out and setting: next, `COc1cc(N2CCN(C)c3cc(N4CC(C)NC(C)C4)c(C#N)cc32)c2cc(C)c(=O)n(C)c2c1` (stereo not drawn) [Example 24]: below 8.00; `CC(=O)NS(=O)(=O)c1ccc2c(c1)N(c1cc(N3CC[C@@H](O)C3)cc3c1cc(C)c(=O)n3C)CCN2C` [Example 105]: above 7.30; `Cc1cc2c(N3CCCc4cc(-c5cnn(C)c5)c(C(F)F)cc43)nc(N3CCN(C)CC3)cc2n(C)c1=O` [Example 223]: above 7.30. Regarding `COc1cc2c(cc1-c1cnn(C)c1)C(C)CCN2c1nc(C2CCOCC2)cc2c1cc(C)c(=O)n2C` (stereo not drawn) [Example 239], the pIC50 is 7.00 to 7.29. Turning to `COc1cc(N2CCN(C)c3ccc([S+](C)[O-])cc32)c2cc(C)c(=O)n(C)c2c1` (single isomer, unassigned) [Example 250], the pIC50 was below 8.00.

`COc1cc(N2CCN(C)c3cc(N4CCC(N(C)C)CC4)c(C#N)cc32)c2cc(C)c(=O)n(C)c2c1` [Example 22]: the negative logarithm of the IC50 (pIC50) was above 7.30. Still for that read-out and setting: next, `CCN1CCN(c2cc(OC)cc3c2cc(C)c(=O)n3C)c2cc(C#N)c(N3CCN(C(C)=O)CC3)cc21` [Example 32]: above 7.30. Take `COc1cc(N2CC(=O)Nc3cc(-c4cnn(C)c4)c(F)cc32)c2cc(C)c(=O)n(C)c2c1` [Example 55]: the negative logarithm of the IC50 (pIC50) was 7.00 to 7.29. Same read-out and setting: with `Cc1cc2c(N3CC(C)N(C)c4cc(-c5cnn(C)c5)ncc43)cc(N3CCOCC3)cc2n(C)c1=O` (stereo not drawn) [Example 144] the figure was 7.00 to 7.29.

`CNC(=O)c1ccc(-c2ccc3c(c2)CCCN3c2cc(OC)cc3c2cc(C)c(=O)n3C)cn1` [Example 186]: the negative-log IC50 (pIC50) was 7.00 to 7.29. On the same count and under the same terms, with `COc1cc(N2CCN(C(C)=O)c3cc(-c4cnn(C)c4)c(C#N)cc32)c2cc(C)c(=O)n(C)c2c1` [Example 63, 1-acetyl-4-(7-methoxy-1,3-dimethyl-2-oxo-1,2-dihydroquinolin-5-yl)-7-(1-methyl-1H-pyrazol-4-yl)-1,2,3,4-tetrahydroquinoxaline-6-carbonitrile] the figure was 7.00 to 7.29; with `Cc1cc2c(N3CCCc4cc(-c5cnn(C)c5)c(C(F)F)cc43)nc(N3CC(O)C(O)C3)cc2n(C)c1=O` (stereo not drawn) [Example 213], above 7.30. For the compound `CNC(=O)c1ccc2c(c1)N(c1cc(OC)cc3c1cc(C)c(=O)n3C)CCN2C` [Example 81], the pIC50 is below 8.00. Same read-out and setting: with `Cc1cc2c(N3CCN(C)c4cc(-c5cnn(C)c5)c(F)cc43)cc(N(C)C)cc2n(C)c1=O` [Example 45] the figure was above 7.30; with `Cc1cc2c(N3CCN(C)c4cc(-c5cnn(C)c5)ncc43)cc(OCCN3CCOCC3)cc2n(C)c1=O` [Example 128], 7.00 to 7.29; with `CCS(=O)(=O)N1CCN(c2cccc3c2cc(C)c(=O)n3C)c2ccc(-c3cnn(C)c3)cc21` [Example 74, 5-(4-(Ethylsulfonyl)-6-(1-methyl-1H-pyrazol-4-yl)-3,4-dihydroquinoxalin-1(2H)-yl)-1,3-dimethylquinolin-2(1H)-one], below 8.00. Turning to `COc1cc(N2CCN(C)c3cc(-c4cnn(C)c4)c(S(N)(=O)=O)cc32)c2cc(C)c(=O)n(C)c2c1` [Example 90], the pIC50 was above 7.30.

For the compound `COc1cc(N2CCN(C)c3cc(S(N)(=O)=O)ccc32)c2cc(C)c(=O)n(C)c2c1` [Example 114, 1-(7-Methoxy-1,3-dimethyl-2-oxo-1,2-dihydroquinolin-5-yl)-4-methyl-1,2,3,4-tetrahydroquinoxaline-6-sulfonamide], the pIC50 was below 8.00. Take `COc1cc(N2CCN(C)c3ccc([S+](C)[O-])cc32)c2cc(C)c(=O)n(C)c2c1` (stereo not drawn) [Example 99]: the negative-log IC50 (pIC50) was 7.00 to 7.29. Take `Cc1cc2c(N3CCCc4cc(C5CCOC5)c(C(F)F)cc43)nc(N3CC[C@@H](O)C3)cc2n(C)c1=O` (stereo partly drawn) [Example 228]: the pIC50 is above 7.30. On the same count and under the same terms, with `Cc1cc2c(N3CCCc4cc(-c5cccn(C)c5=O)c(C(F)F)cc43)nc(C3CCOCC3)cc2n(C)c1=O` [Example 235, 5-(7-(difluoromethyl)-6-(1-methyl-2-oxo-1,2-dihydropyridin-3-yl)-3,4-dihydroquinolin-1(2H)-yl)-1,3-dimethyl-7-(tetrahydro-2H-pyran-4-yl)-1,6-naphthyridin-2(1H)-one] the figure was above 7.30; with `Cc1cc2c(N3CCCc4cc(-c5cnn(C)c5)c(C(F)F)cc43)cc(N3CC[C@@H](O)C3)cc2n(C)c1=O` [Example 177], 7.00 to 7.29; with `Cc1cc2c(N3CCCc4cc(-c5cnn(C)c5)ncc43)cc(N3CCOCC3)cc2n(C)c1=O` [Example 169], above 7.30. Regarding `COc1cc(N2CCc3cccc(-c4cnn(C)c4)c3C2)c2cc(C)c(=O)n(C)c2c1` [Example 189], the negative-log IC50 (pIC50) was below 8.00. On the same count and under the same terms, next, `Cc1cc2c(N3CCN(C)c4cc(-c5cnn(C)c5)c(CO)cc43)cccc2[nH]c1=O` [Example 58, 5-(7-(Hydroxymethyl)-4-methyl-6-(1-methyl-1H-pyrazol-4-yl)-3,4-dihydroquinoxalin-1(2H)-yl)-3-methylquinolin-2(1H)-one]: 7.00 to 7.29. On the same count and under the same terms, next, `COc1cc(N2CCCc3cc(N4CCN(C(C)=O)CC4)ccc32)c2cc(C)c(=O)n(C)c2c1` [Example 185]: below 8.00.

The inhibition is the percentage by which the read-out fell short of the control. As a reminder, the pIC50 is the IC50 on a negative log10 scale, so that one unit is a factor of ten.
